Patent US11970497B2, “Tricyclic AKR1C3 dependent KARS inhibitors” (Novartis AG, priority 2019, dated 2024)

How the values were obtained:
[1] = test system: H460 (NRF2 pathway mutant cell line with high AKR1C3 expression); experiment: In vitro cell proliferation assay (CellTiter-Glo), H460; assay type: cell-based; settings: Homo sapiens, NCI-H460, 72 h; H460 cells, 3 days, CellTiter-Glo, top concentration 10 μM; read-out: H460 Qualified absolute AC50
Method in brief: (§1)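 Luminescent CellTiter-Glo readout after 3-day compound exposure at 37 °C; 8-point 1:5 series, top 10 μM final. Seeding: 800 cells/well for H460, 2000 cells/well for Hara, RPMI-1640 plus 10% FBS. AC50 and percentage activity derived after normalizing to DMSO (1%) and MG132 (30 μM) controls.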

[2] = test system: Hara (NRF2 pathway wild type cell line with low AKR1C3 expression); experiment: In vitro cell proliferation assay (CellTiter-Glo), Hara; assay type: cell-based; settings: 72 h; Hara cells, 3 days, CellTiter-Glo, top concentration 10 μM; read-out: HARA Qualified absolute AC50
Method in brief: as §1

SMILES	AC50 [1] [nM]	AC50 [2] [nM]
O=C1CC2(CCN(C(=O)NCc3ccon3)CC2)Nc2ccc(F)cc21 [Example 118, 6′-fluoro-N-(isoxazol-3-ylmethyl)-4′-oxo-3′,4′-dihydro-1′H-spiro[piperidine-4,2′-quinoline]-1-carboxamide]	1010	> 10000
COC1CN(c2cc(CNC(=O)N3CCC4(CC3)CC(=O)c3cc(F)ccc3N4)ccc2F)C1 [Example 102, 6′-fluoro-N-(4-fluoro-3-(3-methoxyazetidin-1-yl)benzyl)-4′-oxo-3′,4′-dihydro-1′H-spiro[piperidine-4,2′-quinoline]-1-carboxamide]	555	3720
O=C1CC2(CCN(C(=O)NCc3cnoc3)CC2)Nc2ccc(F)cc21 [Example 107, 6′-fluoro-N-(isoxazol-4-ylmethyl)-4′-oxo-3′,4′-dihydro-1′H-spiro[piperidine-4,2′-quinoline]-1-carboxamide]	612	> 10000
O=C1CC2(CCN(C(=O)NCc3cccc4c3OCO4)CC2)Nc2c(F)cc(F)cc21 [Example 53, N-(benzo[d][1,3]dioxol-4-ylmethyl)-6′,8′-difluoro-4′-oxo-3′,4′-dihydro-1′H-spiro[piperidine-4,2′-quinoline]-1-carboxamide]	141	2020
COc1cc(CNC(=O)N2CCC3(CC2)CC(=O)c2cc(F)ccc2N3C)ccc1F [Example 8, 6′-fluoro-N-(4-fluoro-3-methoxybenzyl)-1′-methyl-4′-oxo-3′,4′-dihydro-1′H-spiro[piperidine-4,2′-quinoline]-1-carboxamide]	15	> 10000
Nc1ccc(CNC(=O)N2CCC3(CC2)CC(=O)c2cc(F)ccc2N3)c(F)c1F [Example 57, N-(4-amino-2,3-difluorobenzyl)-6′-fluoro-4′-oxo-3′,4′-dihydro-1′H-spiro[piperidine-4,2′-quinoline]-1-carboxamide]	170	> 10000
O=C1CC2(CCN(C(=O)NCc3ccc(F)cc3Cl)CC2)Nc2ccc(F)cc21 [Example 68, N-(2-chloro-4-fluorobenzyl)-6′-fluoro-4′-oxo-3′,4′-dihydro-1′H-spiro[piperidine-4,2′-quinoline]-1-carboxamide]	226	9140
Nc1ccc(CNC(=O)N2CCC3(CC2)CC(=O)c2cc(F)ccc2N3)cc1 [Example 89, N-(4-aminobenzyl)-6′-fluoro-4′-oxo-3′,4′-dihydro-1′H-spiro[piperidine-4,2′-quinoline]-1-carboxamide]	436	> 10000
Nc1ccc(CNC(=O)N2CCC3(CC2)CC(=O)c2cc(F)ccc2N3)cc1Cl [Example 87, N-(4-amino-3-chlorobenzyl)-6′-fluoro-4′-oxo-3′,4′-dihydro-1′H-spiro[piperidine-4,2′-quinoline]-1-carboxamide]	388	> 10000
O=C1CC2(CCN(C(=O)NCc3ccc(OC(F)F)cc3)CC2)Nc2c(F)cc(F)cc21 [Example 150, N-(4-(difluoromethoxy)benzyl)-6′,8′-difluoro-4′-oxo-3′,4′-dihydro-1′H-spiro[piperidine-4,2′-quinoline]-1-carboxamide]	6270	2620
CCN1c2ccc(F)cc2C(=O)CC12CCN(C(=O)NCc1ccc(F)c(NCCO)c1F)CC2 [Example 75, N-(2,4-difluoro-3-((2-hydroxyethyl)amino)benzyl)-1′-ethyl-6′-fluoro-4′-oxo-3′,4′-dihydro-1′H-spiro[piperidine-4,2′-quinoline]-1-carboxamide]	306	> 10000
CN1c2ccc(F)cc2C(=O)CC12CCN(C(=O)NCc1cc(NCCO)c(F)cc1F)CC2 [Example 17, N-(2,4-difluoro-5-((2-hydroxyethyl)amino)benzyl)-6′-fluoro-1′-methyl-4′-oxo-3′,4′-dihydro-1′H-spiro[piperidine-4,2′-quinoline]-1-carboxamide]	30	> 10000
CN1c2ccc(F)cc2C(=O)CC12CCN(C(=O)NCc1ccc(F)c(N)c1)CC2 [Example 27, N-(3-amino-4-fluorobenzyl)-6′-fluoro-1′-methyl-4′-oxo-3′,4′-dihydro-1′H-spiro[piperidine-4,2′-quinoline]-1-carboxamide]	48	> 10000
CC(O)c1cc(CNC(=O)N2CCC3(CC2)CC(=O)c2cc(F)ccc2N3C)ccc1F (stereo not shown) [Example 92, 6′-fluoro-N-(4-fluoro-3-(1-hydroxyethyl)benzyl)-1′-methyl-4′-oxo-3′,4′-dihydro-1′H-spiro[piperidine-4,2′-quinoline]-1-carboxamide]	467	> 10000
COc1cc(CNC(=O)N2CCC3(CC2)CC(=O)c2cc(F)cc(F)c2N3)ccn1 [Example 115, 6′,8′-difluoro-N-((2-methoxypyridin-4-yl)methyl)-4′-oxo-3′,4′-dihydro-1′H-spiro[piperidine-4,2′-quinoline]-1-carboxamide]	930	> 10000
Nc1ccc(CNC(=O)N2CCC3(CC2)CC(=O)c2cc(F)ccc2N3)cn1 [Example 136, N-((6-aminopyridin-3-yl)methyl)-6′-fluoro-4′-oxo-3′,4′-dihydro-1′H-spiro[piperidine-4,2′-quinoline]-1-carboxamide]	1990	> 10000
O=C1CC2(CCN(C(=O)NCc3cccc4nonc34)CC2)Nc2ccc(F)cc21 [Example 141, N-(benzo[c][1,2,5]oxadiazol-4-ylmethyl)-6′-fluoro-4′-oxo-3′,4′-dihydro-1′H-spiro[piperidine-4,2′-quinoline]-1-carboxamide]	2450	> 10000
O=C1CC2(CCN(C(=O)NCc3cocn3)CC2)Nc2ccc(F)cc21 [Example 138, 6′-fluoro-N-(oxazol-4-ylmethyl)-4′-oxo-3′,4′-dihydro-1′H-spiro[piperidine4,2′-quinoline]-1-carboxamide]	2110	> 10000
CN1c2ccc(F)cc2C(=O)CC12CCN(C(=O)NCc1ccc(F)cc1F)CC2 [Example 5, N-(2,4-difluorobenzyl)-6′-fluoro-1′-methyl-4′-oxo-3′,4′-dihydro-1′H-spiro[piperidine-4,2′-quinoline]-1-carboxamide]	8	> 10000
O=C1CC2(CCN(C(=O)NCc3ccc(F)c(CNCCO)c3)CC2)Nc2ccc(F)cc21 [Example 146, 6′-fluoro-N-(4-fluoro-3-(((2-hydroxyethyl)amino)methyl)benzyl)-4′-oxo-3′,4′-dihydro-1′H-spiro[piperidine-4,2′-quinoline]-1-carboxamide]	3650	2790
O=C1CC2(CCN(C(=O)NCc3ccc(F)c(CO)c3)CC2)Nc2c(F)cc(F)cc21 [Example 132, 6′,8′-difluoro-N-(4-fluoro-3-(hydroxymethyl)benzyl)-4′-oxo-3′,4′-dihydro-1′H-spiro[piperidine-4,2′-quinoline]-1-carboxamide]	1720	> 10000
NC(=O)c1cccc(CNC(=O)N2CCC3(CC2)CC(=O)c2cc(F)ccc2N3)c1 [Example 69, N-(3-carbamoylbenzyl)-6′-fluoro-4′-oxo-3′,4′-dihydro-1′H-spiro[piperidine-4,2′-quinoline]-1-carboxamide]	233	> 10000
NS(=O)(=O)Cc1cc(CNC(=O)N2CCC3(CC2)CC(=O)c2cc(F)ccc2N3)ccc1F [Example 147, 6′-fluoro-N-(4-fluoro-3-(sulfamoylmethyl)benzyl)-4′-oxo-3′,4′-dihydro-1′H-spiro[piperidine-4,2′-quinoline]-1-carboxamide]	3960	> 10000
